Assay results as given in ChEMBL document CHEMBL4616641, “4-Hydroxy-3-methylbenzofuran-2-carbohydrazones as novel LSD1 inhibitors” (Bioorg Med Chem Lett, 2020).
pIC50: −log10 of the molar value.

Tests used:
PC-3 = assay: Antiproliferative activity against human PC3 cells assessed as inhibition of cell growth
MGC-803 = assay: Antiproliferative activity against human MGC803 cells assessed as inhibition of cell growth by MTT assay
U-87 MG = assay: Antiproliferative activity against human U87MG cells assessed as inhibition of cell growth
MCF7 = assay: Antiproliferative activity against human MCF7 cells assessed as inhibition of cell growth
HT-29 = assay: Antiproliferative activity against human HT-29 cells assessed as inhibition of cell growth
PANC-1 = assay: Antiproliferative activity against human PANC1 cells assessed as inhibition of cell growth

Row | SMILES | pIC50 (PC-3) | pIC50 (MGC-803) | further results
1 | Cc1c(C(=O)N/N=C\c2ccco2)oc2cccc(O)c12 | ≤ 4.40 |  | 
2 | Cc1c(C(=O)N/N=C\c2ccc(Br)cc2O)oc2cccc(O)c12 | 5.69 | 5.26 | 
3 | Cc1c(C(=O)N/N=C\c2cccc(F)c2O)oc2cccc(O)c12 | 4.90 | 5.08 | 
4 | Cc1c(C(=O)N/N=C\c2c(O)cccc2Cl)oc2cccc(O)c12 | 4.73 |  | 
5 | Cc1c(C(=O)N/N=C\c2ccccc2F)oc2cccc(O)c12 | ≤ 4.40 |  | 
6 | Cc1c(C(=O)N/N=C\c2ccc(O)cc2O)oc2cccc(O)c12 | 4.83 | 5.13 | pIC50 (U-87 MG): 5.36; pIC50 (MCF7): 5.68; pIC50 (HT-29): 5.54; pIC50 (PANC-1): 5.01
7 | Cc1c(C(=O)N/N=C\c2ccccc2C(F)(F)F)oc2cccc(O)c12 | 4.58 |  | 
8 | Cc1c(C(=O)N/N=C\c2cc(F)ccc2O)oc2cccc(O)c12 | 5.50 | 5.28 | 
9 | Cc1c(C(=O)N/N=C\c2ccncc2)oc2cccc(O)c12 | ≤ 4.40 |  | 
10 | Cc1c(C(=O)N/N=C\c2ccccn2)oc2cccc(O)c12 | ≤ 4.40 |  | 
11 | Cc1c(C(=O)N/N=C\c2ccccc2O)oc2cccc(O)c12 | 5.08 | 4.97 | 
12 | COc1cccc(/C=N\NC(=O)c2oc3cccc(O)c3c2C)c1 | ≤ 4.40 |  | 
13 | Cc1c(C(=O)N/N=C\c2cc(O)ccc2O)oc2cccc(O)c12 | 4.02 |  | 
14 | Cc1c(C(=O)N/N=C\c2ccc(C(F)(F)F)cc2)oc2cccc(O)c12 | ≤ 4.40 |  | 
15 | Cc1c(C(=O)N/N=C\c2cccnc2)oc2cccc(O)c12 | ≤ 4.40 |  | 
16 | Cc1c(C(=O)N/N=C\c2c(O)cccc2F)oc2cccc(O)c12 | 5.09 | 4.96 | pIC50 (U-87 MG): 5.03; pIC50 (MCF7): 5.76; pIC50 (HT-29): 5.66; pIC50 (PANC-1): 5.08
17 | Cc1c(C(=O)N/N=C\c2cccc(O)c2)oc2cccc(O)c12 | 4.75 |  | 
18 | Cc1c(C(=O)N/N=C\c2cccs2)oc2cccc(O)c12 | 4.65 |  | 
19 | Cc1c(C(=O)N/N=C\c2cccc(O)c2O)oc2cccc(O)c12 | 4.92 | 5.30 | 
20 | Cc1ccc(O)c(/C=N\NC(=O)c2oc3cccc(O)c3c2C)c1 | 5.13 | 5.22 | 
21 | Cc1c(C(=O)N/N=C\c2cc([N+](=O)[O-])ccc2O)oc2cccc(O)c12 | 4.77 |  | 
22 | Cc1c(C(=O)N/N=C\c2ccc(O)c(O)c2O)oc2cccc(O)c12 | ≤ 4.40 | 4.74 | pIC50 (U-87 MG): 5.22; pIC50 (MCF7): 4.77; pIC50 (HT-29): < 4.70; pIC50 (PANC-1): < 4.70
23 | COc1ccccc1/C=N\NC(=O)c1oc2cccc(O)c2c1C | 4.48 |  | 
24 | Cc1c(C(=O)N/N=C\c2cccc(Br)c2O)oc2cccc(O)c12 | 4.78 | 4.85 | 
25 | Cc1c(C(=O)N/N=C\c2ccc(F)cc2)oc2cccc(O)c12 | ≤ 4.40 |  | 
26 | Cc1c(C(=O)N/N=C\c2cc(Cl)cc(Cl)c2O)oc2cccc(O)c12 | 5.02 | 5.36 | 
27 | Cc1c(C(=O)N/N=C\c2cc(Cl)ccc2O)oc2cccc(O)c12 | 5.51 | 5.38 | 
28 | Cc1c(C(=O)N/N=C\c2cccc(F)c2)oc2cccc(O)c12 | ≤ 4.40 |  | 
29 | Cc1c(C(=O)N/N=C\c2ccccc2)oc2cccc(O)c12 | 4.54 |  | 
30 | Cc1c(C(=O)N/N=C\c2ccc(O)cc2)oc2cccc(O)c12 | 4.66 |  | 
